Measurements taken from PMC3386958, “High-throughput Screening and Sensitized Bacteria Identify an M. tuberculosis Dihydrofolate Reductase Inhibitor with Whole Cell Activity” (PLoS ONE, 2012).

Target: T1, Mtb dihydrofolate reductase (DHFR) (Mycobacterium tuberculosis, UniProt P9WNX1)
T1 construct: gene folA; recombinant, 6-histidine tag at the amino terminus
T1 sequence (P9WNX1 1-161): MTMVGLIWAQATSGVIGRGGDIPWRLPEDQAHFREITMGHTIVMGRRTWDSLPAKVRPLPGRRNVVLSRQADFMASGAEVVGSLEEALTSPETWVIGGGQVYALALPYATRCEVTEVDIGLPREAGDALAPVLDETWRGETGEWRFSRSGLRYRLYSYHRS
Type: biochemical

## Nc1nc(N)c2cc(C(F)(F)F)ccc2n1 [NC00094221]
  IC50: 22.4 nM
